According to US20240398771A1, “TREATMENT OF SCLERODERMA AND RAYNAUD'S SYNDROME” (Aisa Pharma, Inc., priority 2023, published 2024):

Test system: participants with SSc-RP
Assay: Average duration of weekly RP attacks, all attacks (minutes)
Assay type: in vivo, human
Details: for Average Duration of weekly RP attacks (All Attacks), Max / Average Duration of weekly RP attacks (All Attacks), Min / Average duration of weekly RP attacks (All Attacks), Change from Baseline, Max / Average duration of weekly RP attacks (All Attacks), Change from Baseline, Min / Average duration of weekly RP attacks (All Attacks), Change from Baseline, Q1 / Average duration of weekly RP attacks (All Attacks), Change from Baseline, Q3 / Average duration of weekly RP attacks (All Attacks), Percent Change from Baseline, Max / Average Duration of weekly RP attacks (All Attacks) / Average Duration of weekly RP attacks (All Attacks), Q1 / Average duration of weekly RP attacks (All Attacks), Change from Baseline / Average duration of weekly RP attacks (All Attacks), Percent Change from Baseline, Min / Average duration of weekly RP attacks (All Attacks), Percent Change from Baseline, Q1 / Average duration of weekly RP attacks (All Attacks), Percent Change from Baseline, Q3: last 7 days of dosing period
Description: The relevant metrics measured by this tool daily are: • Study medication • SSc-RP symptoms (Reporting an attack including duration of attack) • Severity of the attack considering all symptoms of the attack e.g. tingling, numbness, pain, color changes (VAS 0-10 cm scale) • Participant's location at the time of the attack (inside home/outside home) • Selecting symptoms experienced during the attack (tingling, numbness, pain, color changes, other) • Pain rating during the attack (11-point Likert scale) • The RCS based on how much difficulty participants had with Raynaud's today, how many attacks the participant had, and how long they lasted. Participants will also be asked to consider how much pain, numbness, or other symptoms the Raynaud's caused in fingers (including painful sores), and how much the Raynaud's alone affected the use of hands today (VAS 0-10 cm scale).
The absolute change in average duration of weekly RP attacks from baseline to the end of each dosing period was and will be a secondary outcome variable. The sponsor-developed participant-informed diary was and will be used to record data. Average duration of weekly RP attacks is defined as the total duration of RP attacks divided by total number of RP attacks within the last 7 days of each dosing period. Total duration of RP attacks during the last 7 days of screening period divided by the total number of RP attacks will be used as baseline for the analysis of all periods. The variable will be calculated similar to frequency data as before.

[1] = Excluding Outliers, ITT Population - Part A (Table B-6), listed as Cilnidipine 10 mg
[2] = Excluding Outliers, ITT Population - Part A (Table B-6), listed as Cilnidipine 20 mg
[3] = Excluding Outliers, ITT Population - Part A (Table B-6), listed as Pooled Cilnidipine
[4] = Excluding Outliers, ITT Population - Part A (Table B-6), last 7 days of screening period, listed as Cilnidipine 10 mg
[5] = Excluding Outliers, ITT Population - Part A (Table B-6), last 7 days of screening period, listed as Cilnidipine 20 mg
[6] = Excluding Outliers, ITT Population - Part A (Table B-6), last 7 days of screening period, listed as Pooled Cilnidipine
[7] = ITT Population - Part A (Table B-5), listed as Cilnidipine 10 mg

COCCOC(=O)C1=C(C)NC(C)=C(C(=O)OC/C=C/c2ccccc2)C1c1cccc([N+](=O)[O-])c1 (stereo not shown) [Cilnidipine, 1,4-dihydro-2,6-dimethyl,4-(3-nitrophenyl)-3,5-pyridinedicarboxylic acid 2-methoxyethyl (2 E)-3-phenyl-2-propenyl ester]
Average Duration of weekly RP attacks (All Attacks), Max [1]: 31.5, 31.5 minutes | Average Duration of weekly RP attacks (All Attacks), Min [1]: 31.5, 31.5 minutes | Average duration of weekly RP attacks (All Attacks), Change from Baseline, Max [1]: −8.5, −8.5 minutes | Average duration of weekly RP attacks (All Attacks), Change from Baseline, Min [1]: −8.5, −8.5 minutes | Average duration of weekly RP attacks (All Attacks), Change from Baseline, Q1 [1]: −8.48, −8.48 minutes | Average duration of weekly RP attacks (All Attacks), Change from Baseline, Q3 [1]: −8.48, −8.48 minutes | Average duration of weekly RP attacks (All Attacks), Percent Change from Baseline, Max [1]: −21.2, −21.2% | Average Duration of weekly RP attacks (All Attacks) [2]: 3.0 min | Average Duration of weekly RP attacks (All Attacks), Max [2]: 30.5 min | Average Duration of weekly RP attacks (All Attacks), Q1 [2]: 3.00 min | Average duration of weekly RP attacks (All Attacks), Change from Baseline [2]: -7.6 min | Average duration of weekly RP attacks (All Attacks), Change from Baseline, Max [2]: 5.5 min | Average duration of weekly RP attacks (All Attacks), Change from Baseline, Q3 [2]: 5.45 min | Average duration of weekly RP attacks (All Attacks), Percent Change from Baseline, Max [2]: 21.8% | Average duration of weekly RP attacks (All Attacks), Percent Change from Baseline, Min [2]: −71.8% | Average duration of weekly RP attacks (All Attacks), Percent Change from Baseline, Q1 [2]: −71.76% | Average duration of weekly RP attacks (All Attacks), Percent Change from Baseline, Q3 [2]: 21.82% | Average Duration of weekly RP attacks (All Attacks) [3]: 3.0 min | Average Duration of weekly RP attacks (All Attacks), Max [3]: 31.5 min | Average Duration of weekly RP attacks (All Attacks), Q1 [3]: 3.00 min | Average duration of weekly RP attacks (All Attacks), Change from Baseline [3]: -8.5 min | Average duration of weekly RP attacks (All Attacks), Change from Baseline, Max [3]: 5.5 min | Average duration of weekly RP attacks (All Attacks), Change from Baseline, Q1 [3]: -8.48 min | Average duration of weekly RP attacks (All Attacks), Change from Baseline, Q3 [3]: 5.45 min | Average duration of weekly RP attacks (All Attacks), Percent Change from Baseline, Max [3]: 21.8% | Average duration of weekly RP attacks (All Attacks), Percent Change from Baseline, Min [3]: −71.8% | Average duration of weekly RP attacks (All Attacks), Percent Change from Baseline, Q1 [3]: −71.76% | Average duration of weekly RP attacks (All Attacks), Percent Change from Baseline, Q3 [3]: 21.82% | Average duration of weekly RP attacks (All Attacks), Baseline, Max [4]: 40.0, 40.0 minutes | Average duration of weekly RP attacks (All Attacks), Baseline, Min [4]: 40.0, 40.0 minutes | Average duration of weekly RP attacks (All Attacks), Baseline, Q1 [4]: 40.00, 40.00 minutes | Average duration of weekly RP attacks (All Attacks), Baseline, Q3 [4]: 40.00, 40.00 minutes | Average duration of weekly RP attacks (All Attacks), Baseline [5]: 10.6 min | Average duration of weekly RP attacks (All Attacks), Baseline, Max [5]: 25.0 min | Average duration of weekly RP attacks (All Attacks), Baseline, Q1 [5]: 10.63 min | Average duration of weekly RP attacks (All Attacks), Baseline, Q3 [5]: 25.00 min | Average duration of weekly RP attacks (All Attacks), Baseline [6]: 10.6 min | Average duration of weekly RP attacks (All Attacks), Baseline, Max [6]: 40.0 min | Average duration of weekly RP attacks (All Attacks), Baseline, Mean [6]: 25.21 min | Average duration of weekly RP attacks (All Attacks), Baseline, Median [6]: 25.00 min | Average duration of weekly RP attacks (All Attacks), Baseline, Q1 [6]: 10.63 min | Average duration of weekly RP attacks (All Attacks), Baseline, Q3 [6]: 40.00 min | Average Duration of weekly RP attacks (All Attacks), Max [7]: 31.5, 31.5 minutes | Average Duration of weekly RP attacks (All Attacks), Min [7]: 31.5, 31.5 minutes | Average duration of weekly RP attacks (All Attacks), Change from Baseline, Max [7]: −8.5, −8.5 minutes | Average duration of weekly RP attacks (All Attacks), Change from Baseline, Min [7]: −8.5, −8.5 minutes
